Values of other authors as cited in Sander's compilation of Henry's law constants (doi:10.1039/p29940001777).

Assay: Henry solubility constant Hcp at 298.15 K (mol/(m3 Pa))
Conditions: reference: Abraham et al. (1994a); cited value

Row | Henry solubility constant Hcp | Structure (SMILES)
1 | 16 | CCc1cccc(O)c1 [1-hydroxy-3-ethylbenzene]
2 | 170 | COc1cccc(O)c1 [1-hydroxy-3-methoxybenzene]
3 | 13 | CCc1ccc(O)cc1 [1-hydroxy-4-ethylbenzene]
4 | 8.6 | CCCc1ccc(O)cc1 [1-hydroxy-4-propylbenzene]
5 | 33 | CCOCCO [2-ethoxyethanol]
6 | 3.1 | Oc1ccccc1F [2-hydroxyfluorobenzene]
7 | 39 | OCCc1ccccc1 [2-phenylethanol]
8 | 460 | CC(=O)c1cccnc1 [3-acetylpyridine]
9 | 65 | O=Cc1cccnc1 [3-formylpyridine]
10 | 90 | COc1cccc(N)c1 [3-methoxy-benzenamine]
11 | 48 | OCCCc1ccccc1 [3-phenyl-1-propanol]
12 | 1.1 | CC(=O)c1ccc(C)cc1 [4'-methylacetophenone]
13 | 160 | CC(=O)c1ccncc1 [4-acetylpyridine]
14 | 56 | O=Cc1ccncc1 [4-formylpyridine]
15 | 29 | OCc1ccccc1 [(hydroxymethyl)-benzene]
16 | 0.24 | CN1CCCCC1 [N-methylpiperidine]
17 | 47000 | NC(=O)c1ccccc1 [benzamide]
18 | 0.5 | N#Cc1ccccc1 [benzenenitrile]
19 | 6.4 | c1ccc2ncccc2c1 [benzo[b]pyridine]
20 | 0.19 | CCOC(=O)c1ccccc1 [ethyl benzoate]
21 | 0.31 | COC(=O)c1ccccc1 [methyl benzoate]

The remaining lines, values behind:

Row | Structure (SMILES) | Henry solubility constant Hcp
22 | Nc1ccccc1Cl [1-amino-2-chlorobenzene] | 1.6
23 | Nc1cccc(Cl)c1 [1-amino-3-chlorobenzene] | 7.5
24 | Nc1ccc(Cl)cc1 [1-amino-4-chlorobenzene] | 8.6
25 | Cc1cccc(O)c1C [1-hydroxy-2,3-dimethylbenzene] | 13
26 | Cc1ccc(O)c(C)c1 [1-hydroxy-2,4-dimethylbenzene] | 10
27 | Cc1ccc(C)c(O)c1 [1-hydroxy-2,5-dimethylbenzene] | 8.8
28 | COc1ccccc1O [1-hydroxy-2-methoxybenzene] | 5
29 | Cc1cc(C)cc(O)c1 [1-hydroxy-3,5-dimethylbenzene] | 16
30 | Nc1cccc2ccccc12 [1-naphthylamine] | 88
31 | Cc1cccc(C)c1N [2,6-dimethylbenzenamine] | 2.7
32 | Oc1ccccc1Cl [2-hydroxychlorobenzene] | 0.88
33 | Oc1ccccc1I [2-iodophenol] | 14
34 | Cc1ccccc1N [2-methylbenzenamine] | 4.6
35 | Nc1ccc2ccccc2c1 [2-naphthylamine] | 120
36 | Nc1ccccc1[N+](=O)[O-] [2-nitrobenzenamine] | 100
37 | O=[N+]([O-])c1ccccc1O [2-nitrophenol] | 0.92
38 | N#Cc1cccnc1 [3-cyanopyridine] | 36
39 | Nc1cccc([N+](=O)[O-])c1 [3-nitrobenzenamine] | 1200
40 | Cc1cc(O)ccc1Cl [4-chloro-3-methylphenol] | 39
41 | N#Cc1ccncc1 [4-cyanopyridine] | 11
42 | Nc1ccc([N+](=O)[O-])cc1 [4-nitrobenzenamine] | 14000
43 | CNc1ccccc1 [(methylamino)-benzene] | 1.1
44 | CCOP(=O)(OCC)OCC [triethylphosphate] | 140
